Usually LD50 stands for the dose expected to kill half of the subjects tested. Read a high LD50 as lower toxicity.

The structures appear in SMILES notation. A value given as a limit tells only on which side of the number the result lay.

The test system of data set [1] is rats. The experiment in a line: LD50, p.o. (rats). The class given is in vivo.
Data set [2] relates to UV-induced corneal lesion. The experiment in a line: Inhibitory effect on UV-induced corneal lesions in rabbits (fluorescein penetration into the cornea, corneal epithelial barrier function). The format is in vivo, rabbit (white rabbits). The following applies: from Table 1 and FIG. 1. As for the experimental part: The inhibitory effect of the present compound on UV-induced corneal lesions in rabbits was evaluated. Test substance: L-Ascorbyl DL-α-tocopherylphosphate potassium (abbreviation: EPC-K). Method: White rabbits were used; 4 animals assigned to the present compound treatment group and 3 assigned to a control group (the nictitating membrane was excised beforehand).
For UV irradiation, Hoya-Schott's HLS200U (dominant wavelength 365 nm) equipped with a 200 W mercury-xenon lamp as the light source was used. Ushio Electric's Unimeter UIT-101 was used for the determination of luminous energy.
One eye of each rabbit was kept open with an eye speculum and set at a distance of 43 cm from the light source so that the irradiation energy would be 0.024 J/cm^2. […]
The degree of rabbit corneal lesion was evaluated by the following method^1). Using fluorescein as a tracer, the fluorescence intensity of the tracer dye penetrating into the cornea within a predetermined region was measured for a quantitative assessment of the barrier function of the corneal epithelium (The corneal epithelium has a barrier function^2) to restrict penetration of any substance into the deep layer of the cornea and when an erosion or other injury occurs in the corneal epithelium, this barrier function is compromised so that the penetration of the substance into the depth of the cornea is increased). […]

For data set [3], the system named is rats. As to the kind of experiment: LD50, i.v. (rats). The class given is in vivo.

Regarding `Cc1c(C)c2c(c(C)c1OP(=O)(O)OC1=C(O)[C@@H]([C@@H](O)CO)OC1=O)CCC(C)(CCCC(C)CCCC(C)CCCC(C)C)O2` (mixture of isomers) [EPC-K, L-ascorbyl DL-α-tocopheryl phosphate potassium], the 50% lethal dose (LD50) is at least 5 g/kg in the data set on rats [1] and at least 100 mg/kg with rats [3]. Moreover, in data set [2], the “inhibition of UV-induced corneal lesion (result in words)” value is “effectively inhibits UV-induced corneal lesion”.

Source of the values: US5795912A, “Therapeutic composition for corneal impairment” (Senju Pharmaceutical, Co., Ltd., priority 1997, dated 1998).
